Measurements published in US10889579B2, “Thiazine derivatives as β-secretase inhibitors and methods of use” (AMGEN INC., priority 2016, dated 2021).
pIC50: −log10 of the molar value.

What was measured:
BACE1 [1] = biological target: T1, BACE1 (Homo sapiens (Human), UniProt P56817); assay: In vitro enzymatic BACE1 FRET assay; type: biochemical; details: pH 4.5, 1 h pre-incubation, read-out: BACE1 Enzyme IC50
Method: (§1) In Vitro Enzymatic BACE1 and BACE2 FRET (Fluorescence Resonance Energy Transfer) Assays
(§2) The cDNAs for both human recombinant BACE1 and 2 with C-terminal 6-His Tags were cloned into transient protein expression vectors, which were subsequently transfected into mammalian cell lines. These recombinant proteins were further purified using Ni-NTA affinity chromatography (Qiagen). The assay buffer used in these screens was 0.05 M acetate, pH 4.5, 8% DMSO final, 100 μM genapol (which is a nonionic detergent, below its Critical Micelle Concentration). The β-secretase enzyme (0.02 nM for BACE1 and 0.64 nM for BACE2), which was pre-incubated for one hour with the test compound, typically in about luL of DMSO according to a serial dilution, was added thereto. The assay was effectively started by the addition of FRET substrate (50 nM) and the combination was incubated for one hour. The FRET assay was terminated by the addition of tris buffer, which raised the pH to neutrality, and the fluorescence was determined. The FRET substrate was a peptide with commercially available fluorophore and quencher, on opposite sides of the BACE cleavage site. The specific FRET substrate used in this assay was made by Amgen in-house. Commercially available FRET substrates, for example, the FRET substrate offered with the BACE1 FRET Assay Kit sold by ThermoFisher Scientific (Catalog Number P2985), may be used in this assay with the appropriate modifications, which are within the purview of the ability of a person with ordinary skill in the art. Proteolytic cleavage of the FRET substrate released quenching of fluorescence (excitation 488 nm and emission 590 nm).
Target sequence in this assay (P56817 46-501): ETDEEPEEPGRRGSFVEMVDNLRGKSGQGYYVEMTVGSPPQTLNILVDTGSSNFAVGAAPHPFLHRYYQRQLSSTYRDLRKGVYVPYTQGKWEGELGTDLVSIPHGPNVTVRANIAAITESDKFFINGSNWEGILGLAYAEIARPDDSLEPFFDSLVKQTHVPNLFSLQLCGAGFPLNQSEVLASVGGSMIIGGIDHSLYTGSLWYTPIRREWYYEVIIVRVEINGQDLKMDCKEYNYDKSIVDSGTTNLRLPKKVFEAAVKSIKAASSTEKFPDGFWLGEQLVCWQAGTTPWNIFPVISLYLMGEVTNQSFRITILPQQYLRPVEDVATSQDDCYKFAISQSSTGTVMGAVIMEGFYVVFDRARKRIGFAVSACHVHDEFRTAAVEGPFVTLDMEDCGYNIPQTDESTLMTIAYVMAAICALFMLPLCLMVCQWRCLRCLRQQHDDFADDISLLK

BACE1 [2] = biological target: T1, BACE1; assay: In vitro BACE1 cell-based assay (Aβ40 in conditioned medium, HTRF); details: Aβ40 in conditioned medium of cells stably expressing APP, 24 h
Method: In Vitro BACE1 Cell-Based Assay
The cell-based assay measures inhibition or reduction of Aβ40 in conditioned medium of test compound treated cells expressing amyloid precursor protein. Cells stably expressing Amyloid Precursor Protein (APP) were plated at a density of 45K cells/well in 384 well plates (Corning/BioCoat 354663). The test compounds were then added to cells in 22-point dose response concentrations with the starting concentration being 62.5 μM. The compounds were diluted from stock solutions in DMSO and the final DMSO concentration of the test compounds on cells was 0.625%. The cells were cultivated overnight at 37° C. and 5% CO2 in DMEM supplemented with 10% FBS. After 24 h of incubation with the test compounds, the conditioned media was collected and the Aβ40 levels were determined using HTRF (Homogeneous Time Resolved Fluorescence). The IC50 of the compound was calculated from the percent of control or percent inhibition of Aβ 40 as a function of the concentration of the test compound.
The HTRF to detect Aβ40 was performed in 384 well plates (Costar 3658). The antibody pair that were used to detect Aβ 40 from cell supernatants were ConfAb40 antibody (Amgen in-house) and biotinylated 6E10 (BIOLEGEND). As an alternative to ConfAb40, a commercially available antibody, Anti-beta Amyloid 1-40 antibody [BDI350] from Abcam, Cambridge, Mass. 02139-1517 (Product code: ab20068), may be used in this assay. The concentrations were 0.35 μg/mL of ConfAb40 antibody and 1.33 μg/mL of 6E10-biotinylated antibody, as well as 4.5 μg/mL of Streptavidin Allophycocyanin Conjugate (ThermoFisher Scientific) in HTRF Buffer (1M Hepes pH 7.5, 1M NaCL, 1% BSA, 0.5% Tween 20).
The conditioned media was incubated with above antibodies and Streptavidin Allophycocyanin Conjugate for 30-60 minutes at 23° C. The final readout was performed on Envision from PerkinElmer.
Target sequence in this assay (P56817 46-501, species assumed): as the sequence (P56817 46-501) above

human recombinant BACE2 = human recombinant BACE2 (Homo sapiens (Human), UniProt Q9Y5Z0); assay: In vitro enzymatic BACE2 FRET assay; type: biochemical; details: pH 4.5, 1 h pre-incubation, read-out: BACE2 Enzyme IC50
Method: as §1, §2

Recombinant CatD = Recombinant CatD (Homo sapiens (Human), UniProt P07339); assay: In vitro enzymatic Cathepsin D (CatD) FRET assay; type: biochemical; details: pH 3.5, 1 h pre-incubation, read-out: Cat D Enzyme IC50
Method: In Vitro Enzymatic Cathepsin D (CatD) FRET Assay Recombinant CatD was expressed in CHO cells. The assay buffer for CatD was 0.05 M citrate pH 3.5, 10% DMSO final, 5 mM CHAPS. The CatD enzyme (9 nM) was pre-incubated for one hour with inhibitors, typically in about luL of DMSO according to a serial dilution, is added thereto. The assays was effectively started by the addition of different FRET substrates (20 nM for CatD) and the combination was incubated for one hour. The FRET assay was terminated with by addition of tris buffer, which raises the pH to neutrality, and the fluorescence was determined. The FRET substrate was a peptide with commercially available fluorophore and quencher, on opposite sides of the CatD cleavage site. The CatD substrate peptide sequence was based on sequence #1 of Table 1 from Gulnik et al., FEBS Lett. 413(2):379-384 (1997). Proteolytic cleavage of the FRET substrate released quenching of fluorescence (CatD excitation 500 nm and emission 580 nm). The in vitro CatD FRET assay data for each of the Examples is provided in Table 2, conducted by the first procedure described above. […] Thus, with this surprising selectivity profile, the compounds provided herein are believed to minimize, reduce or completely eliminate any risk of retinal atrophy and abnormal development of the eye and of the retinal pigmented epithelium as it relates to the normal function and activity of CatD.

human recombinant BACE2, sequence (Q9Y5Z0 63-518): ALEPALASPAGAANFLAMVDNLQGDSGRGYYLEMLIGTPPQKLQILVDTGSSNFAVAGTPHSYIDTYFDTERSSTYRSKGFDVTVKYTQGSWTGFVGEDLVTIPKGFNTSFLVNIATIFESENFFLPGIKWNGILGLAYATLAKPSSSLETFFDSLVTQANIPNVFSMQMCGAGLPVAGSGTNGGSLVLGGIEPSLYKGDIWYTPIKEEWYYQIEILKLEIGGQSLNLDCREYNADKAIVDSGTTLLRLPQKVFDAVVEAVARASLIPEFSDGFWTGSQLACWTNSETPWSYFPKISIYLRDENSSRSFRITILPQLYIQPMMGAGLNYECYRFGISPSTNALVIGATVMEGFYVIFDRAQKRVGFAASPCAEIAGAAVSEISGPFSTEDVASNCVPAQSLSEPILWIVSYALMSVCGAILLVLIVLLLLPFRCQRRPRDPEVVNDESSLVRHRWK
Recombinant CatD, sequence (P07339 65-412): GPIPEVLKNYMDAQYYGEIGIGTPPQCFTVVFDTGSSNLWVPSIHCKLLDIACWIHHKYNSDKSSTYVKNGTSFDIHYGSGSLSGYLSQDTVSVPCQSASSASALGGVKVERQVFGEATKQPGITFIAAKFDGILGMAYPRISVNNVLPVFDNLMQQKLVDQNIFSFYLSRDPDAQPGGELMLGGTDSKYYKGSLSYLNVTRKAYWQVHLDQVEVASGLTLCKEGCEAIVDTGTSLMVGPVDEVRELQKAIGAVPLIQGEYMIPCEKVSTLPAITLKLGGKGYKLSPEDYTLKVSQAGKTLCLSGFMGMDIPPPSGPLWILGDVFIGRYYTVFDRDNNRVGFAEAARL

pIC50 (BACE1 [1]) | pIC50 (BACE1 [2]) | pIC50 (human recombinant BACE2) | pIC50 (Recombinant CatD) | Compound
7.01 | 7.31 | 6.22 | 4.28 | C[C@@]1(c2cc(/C=C(\F)c3ccc(C#N)cn3)ccc2F)C=CSC(N)=N1 [Example 101, (S,Z)-6-(2-(3-(2-amino-4-methyl-4H-1,3-thiazin-4-yl)-4-fluorophenyl)-1-fluorovinyl)nicotinonitrile]
7.13 | 7.82 | 6.32 | 3.73 | C[C@@]1(c2cc(/C=C(\F)c3ccc(C#N)cn3)ccc2F)CCSC(N)=N1 [Example 103, (S,Z)-6-(2-(3-(2-amino-4-methyl-5,6-dihydro-4H-1,3-thiazin-4-yl)-4-fluorophenyl)-1-fluorovinyl)nicotinonitrile]
7.27 | 6.67 | 7.12 | 4.04 | COC(=O)[C@]1(C)C[C@@](C)(c2cc(/C=C(\F)c3ccc(Cl)cn3)ccc2F)N=C(N)S1 [Example 106, (4S,6S)-methyl 2-amino-4-(5-((Z)-2-(5-chloropyridin-2-yl)-2-fluorovinyl)-2-fluorophenyl)-4,6-dimethyl-5,6-dihydro-4H-1,3-thiazine-6-carboxylate]
7.17 | 6.28 | 7.05 | 3.55 | COC(=O)[C@@]1(C)C[C@@](C)(c2cc(/C=C(\F)c3ccc(Cl)cn3)ccc2F)N=C(N)S1 [Example 107, (4S,6R)-methyl 2-amino-4-(5-((Z)-2-(5-chloropyridin-2-yl)-2-fluorovinyl)-2-fluorophenyl)-4,6-dimethyl-5,6-dihydro-4H-1,3-thiazine-6-carboxylate]
7.80 | 7.36 | 6.64 | 3.41 | COC(=O)[C@@]1(C)C[C@@](C)(c2cc(/C=C(\F)c3ccc(C#N)cn3)ccc2F)N=C(N)S1 [Example 108, (4S,6R)-methyl 2-amino-4-(5-((Z)-2-(5-cyanopyridin-2-yl)-2-fluorovinyl)-2-fluorophenyl)-4,6-dimethyl-5,6-dihydro-4H-1,3-thiazine-6-carboxylate]
7.80 | 7.62 | 6.55 | 4.02 | COC(=O)[C@]1(C)C[C@@](C)(c2cc(/C=C(\F)c3ccc(C#N)cn3)ccc2F)N=C(N)S1 [Example 109, (4S,6S)-methyl 2-amino-4-(5-((Z)-2-(5-cyanopyridin-2-yl)-2-fluorovinyl)-2-fluorophenyl)-4,6-dimethyl-5,6-dihydro-4H-1,3-thiazine-6-carboxylate]
8.40 | 8.70 | 6.89 | 3.60 | C[C@@]1(C(=O)N2CCOCC2)C[C@@](C)(c2cc(/C=C(\F)c3ccc(C#N)cn3)ccc2F)N=C(N)S1 [Example 110, 6-((Z)-2-(3-((4S,6S)-2-amino-4,6-dimethyl-6-(morpholine-4-carbonyl)-5,6-dihydro-4H-1,3-thiazin-4-yl)-4-fluorophenyl)-1-fluorovinyl)nicotinonitrile]
7.01 | 6.70 | 5.83 | 3.52 | C[C@]1(C(=O)N2CCOCC2)C[C@@](C)(c2cc(/C=C(\F)c3ccc(C#N)cn3)ccc2F)N=C(N)S1 [Example 111, 6-((Z)-2-(3-((4S,6R)-2-amino-4,6-dimethyl-6-(morpholine-4-carbonyl)-5,6-dihydro-4H-1,3-thiazin-4-yl)-4-fluorophenyl)-1-fluorovinyl)nicotinonitrile]
8.22 | 8.70 | 6.45 | 4.66 | C#CCOc1cnc(/C(F)=C/c2ccc(F)c([C@]3(C)C[C@@](C)(C(=O)N4CCOCC4)SC(N)=N3)c2)cn1 [Example 114, ((4S,6S)-2-amino-4-(2-fluoro-5-((Z)-2-fluoro-2-(5-(prop-2-yn-1-yloxy)pyrazin-2-yl)vinyl)phenyl)-4,6-dimethyl-5,6-dihydro-4H-1,3-thiazin-6-yl)(morpholino)methanone]
7.62 | 7.74 | 6.12 | 4.40 | C#CCOc1cnc(/C(F)=C/c2ccc(F)c([C@]3(C)C[C@@](C)(C(=O)NCC(F)F)SC(N)=N3)c2)cn1 [Example 115, (4S,6S)-2-amino-N-(2,2-difluoroethyl)-4-(2-fluoro-5-((Z)-2-fluoro-2-(5-(prop-2-yn-1-yloxy)pyrazin-2-yl)vinyl)phenyl)-4,6-dimethyl-5,6-dihydro-4H-1,3-thiazine-6-carboxamide]

Compound | pIC50 (BACE1 [1]) | pIC50 (BACE1 [2]) | pIC50 (human recombinant BACE2) | pIC50 (Recombinant CatD)
COC(=O)[C@H]1C[C@@](C)(c2cc(/C=C(\F)c3ccc(Cl)cn3)ccc2F)N=C(N)S1 (single isomer, unassigned) [Example 104] | 6.67 | 6.33 | 6.73 | 3.88
COC(=O)[C@@H]1C[C@@](C)(c2cc(/C=C(\F)c3ccc(Cl)cn3)ccc2F)N=C(N)S1 (single isomer, unassigned) [Example 105] | 7.35 | 6.42 | 7.31 | 4.13
C[C@@]1(c2cc(/C=C(\F)c3ccc(Cl)cn3)ccc2F)C=CSC(N)=N1 [Example 100, (S,Z)-4-(5-(2-(5-chloropyridin-2-yl)-2-fluorovinyl)-2-fluorophenyl)-4-methyl-4H-1,3-thiazin-2-amine] | 6.66 | 6.45 | 6.72 | 4.43
C[C@@]1(c2cc(/C=C(\F)c3ccc(Cl)cn3)ccc2F)CCSC(N)=N1 [Example 102, (S,Z)-4-(5-(2-(5-chloropyridin-2-yl)-2-fluorovinyl)-2-fluorophenyl)-4-methyl-5,6-dihydro-4H-1,3-thiazin-2-amine] | 6.91 | 6.83 | 7.19 | 3.68
C#CCOc1cnc(/C(F)=C/c2ccc(F)c([C@]3(C)C[C@](C)(C(=O)NC)SC(N)=N3)c2)cn1 [Example 112, (4S,6R)-2-amino-4-(2-fluoro-5-((Z)-2-fluoro-2-(5-(2-propyn-1-yloxy)-2-pyrazinyl)ethenyl)phenyl)-N,4,6-trimethyl-5,6-dihydro-4H-1,3-thiazine-6-carboxamide] | 7.43 | 7.96 | 5.88 | 4.10
C#CCOc1cnc(/C(F)=C/c2ccc(F)c([C@]3(C)C[C@@](C)(C(=O)NC)SC(N)=N3)c2)cn1 [Example 113, (4S,6S)-2-amino-4-(2-fluoro-5-((Z)-2-fluoro-2-(5-(2-propyn-1-yloxy)-2-pyrazinyl)ethenyl)phenyl)-N,4,6-trimethyl-5,6-dihydro-4H-1,3-thiazine-6-carboxamide] | 7.66 | 8.00 | 6.08 | 3.75
